Test results published in patent US7541352B2, “Compounds for the treatment of hepatitis C” (Bristol-Myers Squibb Company, priority 2007, dated 2009).
Like-named read-outs stand apart in the source and are kept apart here.

How the values were obtained:
[1] = target: T1, HCV NS5B RdRp genotype 1b (Hepatitis C virus genotype 1b, UniProt Q9WMX2); experiment: Modified HCV NS5B RdRp enzyme assay (preincubation protocol); assay type: biochemical
T1 construct: The protein was expressed with an 18 amino acid C-terminal truncation to enhance the solubility; made in house; host or cells: E. coli BL21(DE3), pET21a
T1 sequence (Q9WMX2 2420-2992): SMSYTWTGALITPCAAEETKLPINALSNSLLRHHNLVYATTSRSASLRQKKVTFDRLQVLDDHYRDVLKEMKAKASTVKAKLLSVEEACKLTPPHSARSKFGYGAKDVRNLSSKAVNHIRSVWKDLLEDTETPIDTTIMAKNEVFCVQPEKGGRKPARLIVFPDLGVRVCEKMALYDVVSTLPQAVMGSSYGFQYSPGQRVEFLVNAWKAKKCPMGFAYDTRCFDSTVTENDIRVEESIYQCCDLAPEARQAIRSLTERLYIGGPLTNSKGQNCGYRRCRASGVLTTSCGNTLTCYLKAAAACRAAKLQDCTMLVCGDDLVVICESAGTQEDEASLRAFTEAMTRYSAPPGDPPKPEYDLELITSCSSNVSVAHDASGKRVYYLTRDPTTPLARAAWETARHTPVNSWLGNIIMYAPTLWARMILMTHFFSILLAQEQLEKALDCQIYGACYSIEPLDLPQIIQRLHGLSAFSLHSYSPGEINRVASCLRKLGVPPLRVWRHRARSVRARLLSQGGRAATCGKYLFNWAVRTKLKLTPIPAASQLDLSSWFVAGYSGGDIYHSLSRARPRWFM
Protocol: HCV NS5B RdRp cloning, expression, and purification. The cDNA encoding the NS5B protein of HCV, genotype 1b, was cloned into the pET21a expression vector. The protein was expressed with an 18 amino acid C-terminal truncation to enhance the solubility. The E. coli competent cell line BL21(DE3) was used for expression of the protein. Cultures were grown at 37° C. for ˜4 hours until the cultures reached an optical density of 2.0 at 600 nm. The cultures were cooled to 20° C. and induced with 1 mM IPTG. Fresh ampicillin was added to a final concentration of 50 μg/ml and the cells were grown overnight at 20° C.
Cell pellets (3 L) were lysed for purification to yield 15-24 mgs of purified NS5B. The lysis buffer consisted of 20 mM Tris-HCl, pH 7.4, 500 mM NaCl, 0.5% triton X-100, 1 mM DTT, 1 mM EDTA, 20% glycerol, 0.5 mg/ml lysozyme, 10 mM MgCl2, 15 ug/ml deoxyribonuclease I, and Complete TM protease inhibitor tablets (Roche). After addition of the lysis buffer, frozen cell pellets were resuspended using a tissue homogenizer. To reduce the viscosity of the sample, aliquots of the lysate were sonicated on ice using a microtip attached to a Branson sonicator. The sonicated lysate was centrifuged at 100,000×g for 1 hr at 4° C. and filtered through a 0.2 μm filter unit (Corning).
The protein was purified using two sequential chromatography steps: Heparin sepharose CL-6B and polyu sepharose 4B (Pharmacia). The chromatography buffers were identical to the lysis buffer but contained no lysozyme, deoxyribonuclease I, MgCl2 or protease inhibitor and the NaCl concentration of the buffer was adjusted according to the requirements for charging the protein onto the column. Each column was eluted with a NaCl gradient which varied in length from 5-50 column volumes depending on the column type. After the final chromatography step, the resulting purity of the enzyme is >90% based on SDS-PAGE analysis. The enzyme was aliquoted and stored at −80° C.
Standard HCV NS5B RdRp enzyme assay. HCV RdRp genotype 1b assays were run in a final volume of 60 μl in 96 well plates (Corning 3600). The assay buffer is composed of 20 mM Hepes, pH 7.5, 2.5 mM KCl, 2.5 mM MgCl2, 1 mM DTT, 1.6 U RNAse inhibitor (Promega N2515), 0.01 mg/ml BSA (Sigma B6917), and 2% glycerol. All compounds were serially diluted (3-fold) in DMSO and diluted further in water such that the final concentration of DMSO in the assay was 2%. HCV RdRp genotype 1b enzyme was used at a final concentration of 28 nM. A polyA template was used at 6 nM, and a biotinylated oligo-dT 12 primer was used at 180 nM final concentration. Template was obtained commercially (Amersham 27-4110). Biotinylated primer was prepared by Sigma Genosys. 3H-UTP was used at 0.6 μCi (0.29 μM total UTP). Reactions were initiated by the addition of enzyme, incubated at 30° C. for 60 min, and stopped by adding 25 μl of 50 mM EDTA containing SPA beads (4 μg/μl, Amersham RPNQ 0007). Plates were read on a Packard Top Count NXT after >1 hr incubation at room temperature.
Modified HCV NS5B RdRp enzyme assay. A modified enzyme assay was performed essentially as described for the standard enzyme assay except for the following: The biotinylated oligo dT12 primer was precaptured on streptavidin-coated SPA beads by mixing primer and beads in assay buffer and incubating at room temperature for one hour. Unbound primer was removed after centrifugation. The primer-bound beads were resuspended in 20 mM Hepes buffer, pH 7.5 and used in the assay at final concentrations of 20 nM primer and 0.67 μg/μl beads. Order of addition in the assay: enzyme (1.75 nM) was added to diluted compound followed by the addition of a mixture of template (0.36 nM), 3H-UTP (0.6 μCi, 0.29 μM), and primer-bound beads, to initiate the reaction; concentrations given are final. Reactions were allowed to proceed for 4 hours at 30° C.
IC50 values for compounds were determined using seven different [I]. […]

HCV replicon cells = experiment: HCV replicon FRET assay; assay type: cell-based
Protocol: FRET Assay Preparation. The HCV FRET screening assay was performed in 96-well cell culture plates. The FRET peptide (Anaspec, Inc.) (Taliani et al., Anal. Biochem. 1996, 240, 60-67) contains a fluorescence donor, EDANS, near one end of the peptide and an acceptor, DABCYL, near the other end. The fluorescence of the peptide is quenched by […] resonance energy transfer (RET) between the donor and the acceptor, but as the NS3 protease cleaves the peptide the products are released from RET quenching and the fluorescence of the donor becomes apparent. The assay reagent was made as follows: 5× cell Luciferase cell culture lysis reagent from Promega (#E153A) diluted to 1× with dH2O, NaCl added to 150 mM final, the FRET peptide diluted to 20 μM final from a 2 mM stock.
To prepare plates, HCV replicon cells, with or without a Renilla luciferase reporter gene, were trypsinized and plated in a 96-well plate with titrated test compounds added in columns 3 through 12; columns 1 and 2 contained a control compound (HCV control inhibitor), and the bottom row contained cells with DMSO only. The plates were then placed in a CO2 incubator at 37° C.
Assays. Subsequent to addition of the test compounds described above (FRET Assay Preparation), at various times the plate was removed and Alamar blue solution (Trek Diagnostics, #00-100) was added to measure cellular toxicity. After reading in a Cytoflour 4000 instrument (PE Biosystems), plates were rinsed with PBS and then used for FRET assay by the addition of 30 ul of the FRET peptide assay reagent described above (FRET Assay Preparation) per well. The plate was then placed into the Cytoflour 4000 instrument which had been set to 340 excite/490 emission, automatic mode for up to 20 cycles and the plate read in a kinetic mode. Typically, the signal to noise using an endpoint analysis after the reads was at least three-fold. Alternatively, after Alamar blue reading, plates were rinsed with PBS, then used for luciferase assay using the Promega Dual-Glo Luciferase Assay System or the Promega EnduRen Live Cell Substrate assay.
Compound analysis was performed by quantification of the relative HCV replicon inhibition and the relative cytotoxicity values. To calculate cytoxicity values, the average Alamar Blue fluorescence signals from the control wells were set as 100% non-toxic. The individual signals in each of the compound test wells were then divided by the average control signal and multiplied by 100% to determine […]. To calculate the HCV replicon inhibition values, an average background value was obtained from the two wells containing the highest amount of HCV control inhibitor at the end of the assay period. These numbers were similar to those obtained from naïve Huh-7 cells. The background numbers were then subtracted from the average signal obtained from the control wells and this number was used as 100% activity. The individual signals in each of the compound test wells were then divided by the averaged control values after background subtraction and multiplied by 100% to determine percent activity. EC50 values were calculated as the concentration which caused a 50% reduction in FRET or luciferase activity. The two numbers generated for the compound plate, percent cytoxicity and percent activity, were used to determine compounds of interest for further analysis.

[2] = HCV NS5B RdRp, determined using the preincubation protocol, read-out: IC50
[3] = Hepatitis C virus, HCV replicon cells, determined using the FRET assay, read-out: EC50

SMILES | IC50 [1, 2] | EC50 (HCV replicon cells; [3]) | EC50 (HCV replicon cells; HCV replicon cells, determined using the FRET assay, read-out: EC50) | IC50 [1] | EC50 (HCV replicon cells; Hepatitis C virus)
COc1ccc(S(=O)(=O)NC23CC2c2cc(OC)ccc2-c2c(C4CCCCC4)c4ccc(C(=O)NS(=O)(=O)N(C)C)cc4n2C3)c(OC)c1 (stereo not drawn) | 1 to 500 nM | 1 to 500 nM | – | – | –
COc1ccc2c(c1)[C@@H]1C[C@]1(NC(=O)C(=O)N(C)C)Cn1c-2c(C2CCCCC2)c2ccc(C(=O)NS(=O)(=O)N(C)C)cc21 [drawing 35] | 1 to 500 nM | 1 to 500 nM | – | – | –
COc1ccc2c(c1)C1CC1(NC(=O)C(=O)N1CCN(C)CC1)Cn1c-2c(C2CCCCC2)c2ccc(C(=O)NS(=O)(=O)N(C)C)cc21 (stereo not drawn) | 1 to 500 nM | 1 to 500 nM | – | – | –
COc1ccc2c(c1)C1C[C@@]1(NC(=O)C(=O)N(C)C)Cn1c-2c(C2CCCCC2)c2ccc(C(=O)NS(=O)(=O)N(C)C)cc21 (stereo partly drawn) [drawing 37] | – | 1 to 500 nM | – | – | –
COc1ccc2c(c1)[C@H]1C[C@@]1(NC(=O)C(=O)N(C)C)Cn1c-2c(C2CCCCC2)c2ccc(C(=O)NS(=O)(=O)N(C)C)cc21 [drawing 37] | 1 to 500 nM | – | – | – | –
COc1ccc2c(c1)[C@@H]1C[C@]1(NC(=O)C(=O)N(C)C)Cn1c-2c(C2CCCCC2)c2ccc(C(=O)NS(=O)(=O)N(C)C)cc21 [drawing 40] | 1 to 500 nM | 1 to 500 nM | – | – | –
COc1ccc2c(c1)C1CC1(NC(=O)C(=O)N1CCN3CCC1CC3)Cn1c-2c(C2CCCCC2)c2ccc(C(=O)NS(=O)(=O)N(C)C)cc21 (stereo not drawn) | 1 to 500 nM | 1 to 500 nM | – | – | –
COc1ccc2c(c1)C1CC1(NC(=O)C(=O)N1CCCC1)Cn1c-2c(C2CCCCC2)c2ccc(C(=O)NS(=O)(=O)N(C)C)cc21 (stereo not drawn) [drawing 39] | 1 to 500 nM | – | 1 to 500 nM | – | –
COc1ccc2c(c1)CC(NC(=O)C(=O)N1C3CCC1CN(C)C3)Cn1c-2c(C2CCCCC2)c2ccc(C(=O)NS(=O)(=O)N(C)C)cc21 (stereo not drawn) | – | – | – | 1 to 500 nM | 1 to 500 nM
COc1ccc2c(c1)C1CC1(NS(=O)(=O)C1CCN(C(=O)OCc3ccccc3)CC1)Cn1c-2c(C2CCCCC2)c2ccc(C(=O)NS(=O)(=O)N(C)C)cc21 (stereo not drawn) | 1 to 500 nM | 1 to 500 nM | – | – | –
COc1ccc2c(c1)[C@@H]1C[C@]1(N(C)C(=O)C(=O)N1CCOCC1c1ccccc1)Cn1c-2c(C2CCCCC2)c2ccc(C(=O)NS(=O)(=O)N(C)C)cc21 (stereo partly drawn) | 1 to 500 nM | 1 to 500 nM | – | – | –
COc1ccc2c(c1)CC(NC(=O)C(=O)N(C)C)Cn1c-2c(C2CCCCC2)c2ccc(C(=O)NS(=O)(=O)N(C)C)cc21 (stereo not drawn) | 1 to 500 nM | 1 to 500 nM | – | – | –
COc1ccc2c(c1)C1CC1(NC(=O)C(=O)N1C3CCC1CN(C)C3)Cn1c-2c(C2CCCCC2)c2ccc(C(=O)NS(=O)(=O)N(C)C)cc21 (stereo not drawn) | – | – | – | 1 to 500 nM | 1 to 500 nM
